# Laboratory results reported in patent US20260256659A1, “COMPLEX FOR SEALING DENTINAL TUBULE, REAGENT FOR TREATING DENTIN HYPERSENSITIVITY, AND USE THEREOF” (ANHUI MEDICAL UNIVERSITY, priority 2023, published 2026).
# Tested on: Streptococcus mutans
# Experiment: In vitro antibacterial properties, turbidimetric method and plate coating method
# Format: cell-based
# Settings: bacterial absorbance after 4 h incubation and bacterial number counting
# Method: The anti-Streptococcus mutans performance of the prepared dentin sealing materials was evaluated by a turbidimetric method and a plate coating method.
smiles,measurement,value
"[Cl-].[Cl-].[Sr+2] [Sr, strontium chloride]",ability to inhibit Streptococcus mutans,ability to inhibit Streptococcus mutans
